PubChem BioAssay AID1963835 (Molecular Pharmacology Branch, DTP, NCI, 2024)
“And” between values parts separate entries of the source, which are not always exact repeats. Identical values can stand only once.

System: 699152-130-R-J1-PDC complex spheroid viability
Assay: Anticancer human tumor 699152-130-R-J1-PDC patient-derived pancreatic carcinoma cell line growth inhibition [POLQ]
Settings: for viability, T/C: stronger effect = lower value
Outline: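 Complex spheroid viability model combining PDC tumour cells with endothelial (HUVEC) and MSC stromal cells. Novobiocin, ART-558 or RP6685 were tested singly and in combination with standard and investigational anticancer drugs. Each was titrated in half-log steps from near clinical Cmax, or from 10 microM where Cmax was unknown.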

[1] = curve of first compound, second compound 0.0316 µM
[2] = curve of first compound, second compound 0.1 µM
[3] = curve of first compound, second compound 0.316 µM
[4] = curve of first compound, second compound 1 µM
[5] = curve of first compound, second compound 3.16 µM
[6] = curve of first compound, second compound 10 µM
[7] = second compound 0.0316 µM, first compound 0.0316 µM
[8] = second compound 0.0316 µM, first compound 0.1 µM
[9] = second compound 0.0316 µM, first compound 0.316 µM
[10] = second compound 0.0316 µM, first compound 1 µM
[11] = second compound 0.1 µM, first compound 0.0316 µM
[12] = second compound 0.1 µM, first compound 0.1 µM
[13] = second compound 0.1 µM, first compound 0.316 µM
[14] = second compound 0.1 µM, first compound 1 µM
[15] = second compound 0.316 µM, first compound 0.0316 µM
[16] = second compound 0.316 µM, first compound 0.1 µM
[17] = second compound 0.316 µM, first compound 0.316 µM
[18] = second compound 0.316 µM, first compound 1 µM
[19] = second compound 1 µM, first compound 0.0316 µM
[20] = second compound 1 µM, first compound 0.1 µM
[21] = second compound 1 µM, first compound 0.316 µM
[22] = second compound 1 µM, first compound 1 µM
[23] = second compound 3.16 µM, first compound 0.0316 µM
[24] = second compound 3.16 µM, first compound 0.1 µM
[25] = second compound 3.16 µM, first compound 0.316 µM
[26] = second compound 3.16 µM, first compound 1 µM
[27] = second compound 10 µM, first compound 0.0316 µM
[28] = second compound 10 µM, first compound 0.1 µM
[29] = second compound 10 µM, first compound 0.316 µM
[30] = second compound 10 µM, first compound 1 µM
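Note: spheroids exposed to agents for 7 days before viability reading.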
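Throughout, for viability, T/C: percent of DMSO vehicle control viability so 100% = vehicle and 0% = no viable signal.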

Structure (SMILES): COc1cccc(OCCCN)c1-c1cc(Nc2cnc(C#N)cn2)n[nH]1 + COC1C(OC(N)=O)C(O)C(Oc2ccc3c(O)c(NC(=O)c4ccc(O)c(CC=C(C)C)c4)c(=O)oc3c2C)OC1(C)C
- IC50 [1]: 256 nM
- IC50 [2]: 524 nM
- IC50 [3]: 495 nM
- IC50 [4]: 297 nM
- IC50 [5]: > 1000 nM
- IC50 [6]: > 1000 nM
- viability, T/C (second compound 0.0316 µM, first compound 0.00316 µM): 92.4%
- viability, T/C (second compound 0.0316 µM, first compound 0.01 µM): 91.4%
- viability, T/C [7]: 57.9%
- viability, T/C [8]: 63%
- viability, T/C [9]: 49.7%
- viability, T/C [10]: 43%
- viability, T/C (second compound 0.1 µM, first compound 0.00316 µM): 96.8%
- viability, T/C (second compound 0.1 µM, first compound 0.01 µM): 89.2%
- viability, T/C [11]: 70.3%
- viability, T/C [12]: 58.1%
- viability, T/C [13]: 50.8%
- viability, T/C [14]: 48.6%
- viability, T/C (second compound 0.316 µM, first compound 0.00316 µM): 107%
- viability, T/C (second compound 0.316 µM, first compound 0.01 µM): 83.1%
- viability, T/C [15]: 67.3%
- viability, T/C [16]: 55.2%
- viability, T/C [17]: 55%
- viability, T/C [18]: 46.1%
- viability, T/C (second compound 1 µM, first compound 0.00316 µM): 93.7%
- viability, T/C (second compound 1 µM, first compound 0.01 µM): 83.2%
- viability, T/C [19]: 69.2%
- viability, T/C [20]: 52.3%
- viability, T/C [21]: 48.4%
- viability, T/C [22]: 50.8%
- viability, T/C (second compound 3.16 µM, first compound 0.00316 µM): 107%
- viability, T/C (second compound 3.16 µM, first compound 0.01 µM): 78.2%
- viability, T/C [23]: 60.7%
- viability, T/C [24]: 54.8%
- viability, T/C [25]: 57.5%
- viability, T/C [26]: 48.8%
- viability, T/C (second compound 10 µM, first compound 0.00316 µM): 94.8%
- viability, T/C (second compound 10 µM, first compound 0.01 µM): 90.8%
- viability, T/C [27]: 62.3%
- viability, T/C [28]: 60.3%
- viability, T/C [29]: 55%
- viability, T/C [30]: 46.3%

Structure (SMILES): CCc1cc2c(N3CCc4c(cc(Cn5ccnc5)cc4-c4cn(C)nc4C(F)(F)F)C3=O)cc(C)nc2c(OC)n1 + Cc1cccc(N(C)C(=O)C2C(O)CCN2c2nc(C)cc(C(F)(F)F)c2C#N)c1
- IC50 [1]: > 10000 nM
- IC50 [2]: > 10000 nM
- IC50 [3]: > 10000 nM
- IC50 [4]: > 10000 nM
- IC50 [5]: > 10000 nM
- IC50 [6]: > 10000 nM
- viability, T/C [7]: 88%
- viability, T/C [8]: 96.5%
- viability, T/C [9]: 89.3%
- viability, T/C [10]: 94.1%
- viability, T/C (second compound 0.0316 µM, first compound 3.16 µM): 92.9%
- viability, T/C (second compound 0.0316 µM, first compound 10 µM): 102%
- viability, T/C [11]: 90.8%
- viability, T/C [12]: 93.2%
- viability, T/C [13]: 95.4%
- viability, T/C [14]: 97.1%
- viability, T/C (second compound 0.1 µM, first compound 3.16 µM): 91.1%
- viability, T/C (second compound 0.1 µM, first compound 10 µM): 98%
- viability, T/C [15]: 94.3%
- viability, T/C [16]: 94.5%
- viability, T/C [17]: 96.9%
- viability, T/C [18]: 103%
- viability, T/C (second compound 0.316 µM, first compound 3.16 µM): 93.8%
- viability, T/C (second compound 0.316 µM, first compound 10 µM): 99.8%
- viability, T/C [19]: 97.1%
- viability, T/C [20]: 89.5%
- viability, T/C [21]: 98.8%
- viability, T/C [22]: 94%
- viability, T/C (second compound 1 µM, first compound 3.16 µM): 91.9%
- viability, T/C (second compound 1 µM, first compound 10 µM): 88.7%
- viability, T/C [23]: 104%
- viability, T/C [24]: 100%
- viability, T/C [25]: 92.2%
- viability, T/C [26]: 90.5%
- viability, T/C (second compound 3.16 µM, first compound 3.16 µM): 101%
- viability, T/C (second compound 3.16 µM, first compound 10 µM): 96.9%
- viability, T/C [27]: 84.8%
- viability, T/C [28]: 93.5%
- viability, T/C [29]: 94.5%
- viability, T/C [30]: 96.1%
- viability, T/C (second compound 10 µM, first compound 3.16 µM): 86%
- viability, T/C (second compound 10 µM, first compound 10 µM): 89.8%

Structure (SMILES): COc1cccc2c1C(=O)c1c(O)c3c(c(O)c1C2=O)CC(O)(C(=O)CO)CC3OC1CC(N)C(O)C(C)O1 (stereo not drawn)
- viability, T/C (compound 0.0316 µM): 72.5% and 86.9% and 85.1%
- viability, T/C (compound 0.1 µM): 60.1% and 60.5% and 89.2%
- viability, T/C (compound 0.316 µM): 48.5% and 51.9% and 44.8%
- viability, T/C (compound 1 µM): 31.2% and 30.2% and 27.1%
- viability, T/C (compound 3.16 µM): 2.58% and 1.68% and 2.6%
- viability, T/C (compound 10 µM): 11.1% and 13.1% and 12.4%
- IC50 (curve of compound): 286 nM and 257 nM and 320 nM

Structure (SMILES): CCCS(=O)(=O)Nc1ccc(F)c(C(=O)c2c[nH]c3ncc(-c4ccc(Cl)cc4)cc23)c1F
- viability, T/C (compound 0.0316 µM): 109% and 96.3% and 112%
- viability, T/C (compound 0.1 µM): 112% and 102% and 110%
- viability, T/C (compound 0.316 µM): 129% and 120% and 116%
- viability, T/C (compound 1 µM): 158% and 156% and 128%
- viability, T/C (compound 3.16 µM): 187% and 182% and 192%
- viability, T/C (compound 10 µM): 34.7% and 43.6% and 56.4%
- IC50 (curve of compound): 8440 nM and 9190 nM and > 10000 nM
